ChEMBL document CHEMBL1201862, “PubChem BioAssay data set” (2004)
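Protocol summary: plate cells (96-well), add compound at 5 concentrations, incubate 48 h, interpolate endpoints linearly. Here, GI50 denotes the concentration required for 50% inhibition of growth.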 Activity calls are given as the source filed them. No stated cut-off is given here; in the data, active = GI50 up to about 1.1 µM and inactive = higher.

How the values were obtained:
Assay in all cases: NCI anticancer screen, dose series, 48 h
IGROV-1 = tested on: IGROV-1
EKVX = tested on: EKVX
UACC-257 = tested on: UACC-257
OVCAR-8 = tested on: OVCAR-8
SNB-19 = tested on: SNB-19
SF-295 = tested on: SF-295
SF-268 = tested on: SF-268
SK-MEL-5 = tested on: SK-MEL-5
SK-OV-3 = tested on: SK-OV-3
SK-MEL-28 = tested on: SK-MEL-28
M14 = tested on: M14
SNB-75 = tested on: SNB-75
TK-10 = tested on: TK-10
HCC 2998 = tested on: HCC 2998
NCI-H23 = tested on: NCI-H23
NCI-H226 = tested on: NCI-H226
LOX IMVI = tested on: LOX IMVI
DMS-114 = tested on: DMS-114
HOP-92 = tested on: HOP-92
RXF 393 = tested on: RXF 393

Measured: GI50

COC(=O)C1CC(C(=O)OC)c2nc3cc(C)c(C)cc3nc21 (centres undefined)
inactive: IGROV-1 > 100 µM | EKVX > 100 µM | UACC-257 > 100 µM | OVCAR-8 > 100 µM | SNB-19 > 100 µM | SF-295 > 100 µM | SF-268 > 100 µM | SK-MEL-5 > 100 µM | SK-OV-3 > 100 µM | SK-MEL-28 > 100 µM | M14 > 100 µM | SNB-75 36.3 µM | TK-10 > 100 µM | HCC 2998 > 100 µM | NCI-H23 > 100 µM | NCI-H226 > 100 µM | LOX IMVI > 100 µM | DMS-114 > 100 µM | HOP-92 > 100 µM

C[N+](C)(C)CC1CCCC/C1=N\O (centres undefined)
inactive: IGROV-1 > 100 µM | EKVX > 100 µM | UACC-257 > 100 µM | RXF 393 > 100 µM | OVCAR-8 > 100 µM | SNB-19 > 100 µM | SF-295 > 100 µM | SF-268 > 100 µM | SK-OV-3 > 100 µM | SK-MEL-28 > 100 µM | M14 > 100 µM | TK-10 > 100 µM | HCC 2998 > 100 µM | NCI-H23 > 100 µM | LOX IMVI > 100 µM | DMS-114 > 100 µM | HOP-92 > 100 µM

O=C(/C=C/c1c(O)ccc2ccccc12)c1cccc(O)c1
inactive: IGROV-1 > 100 µM | EKVX > 100 µM | UACC-257 76.9 µM | RXF 393 > 77.4 µM | OVCAR-8 > 100 µM | SNB-19 > 100 µM | SF-295 > 100 µM | SF-268 > 100 µM | SK-MEL-5 50.4 µM | SK-OV-3 > 100 µM | SK-MEL-28 > 100 µM | M14 > 100 µM | SNB-75 71.6 µM | TK-10 > 100 µM | HCC 2998 > 100 µM | NCI-H23 > 79.8 µM | NCI-H226 > 100 µM | LOX IMVI 41.8 µM | DMS-114 41.3 µM | HOP-92 > 62.8 µM

COc1ccc2nc(-c3cccs3)cc(C(O)CN3CCSCC3)c2c1 (centres undefined)
inactive: IGROV-1 36 µM | EKVX 29 µM | UACC-257 21.2 µM | RXF 393 45 µM | OVCAR-8 16.6 µM | SNB-19 29.2 µM | SF-295 27.6 µM | SF-268 27 µM | SK-MEL-5 16.4 µM | SK-OV-3 39.6 µM | SK-MEL-28 24.9 µM | M14 18.1 µM | SNB-75 23.6 µM | TK-10 31.2 µM | HCC 2998 19.7 µM | NCI-H23 20.9 µM | LOX IMVI 16.5 µM | DMS-114 12.2 µM | HOP-92 14.3 µM

N#CNc1nc(C(=O)Nc2ccc(Cl)cc2)cc(-c2ccccc2)n1
inactive: IGROV-1 > 100 µM | EKVX > 100 µM | UACC-257 > 100 µM | RXF 393 > 100 µM | OVCAR-8 > 100 µM | SNB-19 > 100 µM | SF-295 > 100 µM | SF-268 > 100 µM | SK-MEL-5 > 100 µM | SK-MEL-28 > 100 µM | M14 > 100 µM | SNB-75 > 100 µM | HCC 2998 > 100 µM | NCI-H23 > 100 µM | NCI-H226 > 100 µM | DMS-114 > 100 µM | HOP-92 > 100 µM

O=C1c2c(nc3ccccc3c2-c2ccccc2)CN1Nc1ccccn1
inactive: IGROV-1 81.8 µM | EKVX 69 µM | UACC-257 > 92 µM | RXF 393 53 µM | OVCAR-8 43.5 µM | SNB-19 > 86.5 µM | SF-295 60.1 µM | SF-268 75.9 µM | SK-MEL-5 74.5 µM | SK-OV-3 98.2 µM | SK-MEL-28 > 100 µM | M14 > 100 µM | SNB-75 34.7 µM | TK-10 > 83 µM | HCC 2998 > 100 µM | NCI-H23 86.5 µM | NCI-H226 61.1 µM | LOX IMVI > 76.9 µM | DMS-114 27.5 µM | HOP-92 38.4 µM

COc1cc2nc(-c3cccc(N(C)C)c3)cc(O)c2cc1OC
inactive: IGROV-1 7.11 µM | EKVX 16.5 µM | UACC-257 5.28 µM | RXF 393 2.21 µM | OVCAR-8 6.03 µM | SNB-19 4.98 µM | SF-295 2.58 µM | SF-268 16.6 µM | SK-MEL-5 4.36 µM | SK-OV-3 3.7 µM | M14 2.07 µM | TK-10 > 100 µM | HCC 2998 2.39 µM | NCI-H23 3.54 µM | NCI-H226 3.58 µM | LOX IMVI 6.79 µM | DMS-114 4.73 µM | HOP-92 > 100 µM

Nc1ccc2c(c1)C(=O)N(OS(=O)(=O)c1ccccc1)C2=O
inactive: IGROV-1 > 100 µM | EKVX > 100 µM | UACC-257 > 100 µM | RXF 393 > 100 µM | OVCAR-8 56.9 µM | SNB-19 > 100 µM | SF-295 > 100 µM | SF-268 > 100 µM | SK-MEL-5 > 100 µM | SK-OV-3 > 100 µM | SK-MEL-28 > 100 µM | M14 > 100 µM | SNB-75 > 100 µM | TK-10 > 100 µM | HCC 2998 > 100 µM | NCI-H23 > 100 µM | NCI-H226 > 100 µM | LOX IMVI 35.5 µM | DMS-114 > 100 µM | HOP-92 > 100 µM

Nc1ccc(O)c2c1C(=O)c1c(N)ccc(O)c1C2=O
inactive: IGROV-1 > 100 µM | EKVX > 100 µM | UACC-257 > 100 µM | RXF 393 > 100 µM | OVCAR-8 > 100 µM | SNB-19 > 100 µM | SF-295 > 100 µM | SF-268 > 100 µM | SK-MEL-5 > 100 µM | SK-OV-3 > 100 µM | SK-MEL-28 > 100 µM | M14 > 100 µM | SNB-75 > 100 µM | TK-10 > 100 µM | HCC 2998 > 100 µM | NCI-H23 > 100 µM | LOX IMVI > 100 µM | DMS-114 > 100 µM | HOP-92 > 100 µM
